One data set concerns L1210 leukemia. Briefly: in vivo antitumor assay, L1210 leukemia. On the set-up: species or system CDF1 mice. The procedure: (§1) The antitumor activity of the present compounds has also been investigated by in vivo assays. In the assays, mice were treated for nine days in succession, starting at 24 hours after the time of tumor implant.
(§2) The results are shown in tables 4, 5 and 6 and represent the number of tumor-bearing mice surviving after administration of optimal doses of the test compound, expressed as a treatment/control (T/C×100%) ratio. In the tables, information is provided with respect to the sex, dose, weight loss of treated animals compared to control animals, and the number of survivors in groups of 6 mice.

A further data set relates to P388 leukemia. The data set can be described thus: in vivo antitumor assay, P388 leukemia. Set-up: species or system CDF1 mice. The following applies: for T/C (survival, treatment/control x 100%): ip daily x9, optimal dose mg/kg: sparsomycin 0.125, n-octyl 22.5, benzyl 2.0, 2e 20.0. The procedure:
as §1, §2

A further data set can be described thus: acute toxicity LD50. The settings on record: mouse, in vivo, ip, daily x9 injections, mice; 95% confidence interval given; read-out: LD 50 in mg/kg/inj i.p. in mice. In kind it is in vivo, mice. From the text: It appears therefrom that ala-sparsomycin is about 9× less toxic than sparsomycin.
Another data set has as its system Leukemia L 1210 cells. Briefly: in vitro clonogenic L1210 assay (inhibition of colony formation in soft agar). The settings on record: Mus musculus, L1210, 72 h, read-out: ID50 (dose giving 50% inhibition of L1210 colony formation). The class given is cell-based.
For data set [1], the system named is ribosomes from E. coli MRE600 (peptidyl transferase activity). The data set can be described thus: polyphenylalanine synthesis assay, E. coli ribosomes. In kind it is biochemical. The settings on record: concentration giving 50% inhibition relative to control; 37° C., 30 min; read-out: ED50 polyPhe synthesis E. coli. How it is done:
(§3) The peptidyl transferase activity was measured by the polyphenylalanine synthesis assay (Nirenberg and Matthei, Proc. Natl. Acad. Sci. USA 47 (1961) 1588), the fragment reaction (Monro, Methods Enzymol. 20 (1971) 472) and the puromycin reaction. In all the in vitro tests, i.e. polyPhe synthesis, fragment reaction and puromycin reaction, ribosomes from E. coli MRE600 and S. cerevisiae Y166 were used. The reaction mixture for polyphenylalanine synthesis was slightly different for E. coli and S. cerevisiae.
E. coli: The reaction mixture (50 μl) contained 50 mM Tris-HCl pH 7.6, 15 mM MgCl2, 90 mM KCl, 15 mM β-mercapto ethanol, 1 mM GTP, 10 mM ATP, 0.2 mg/ml of polyuridylic acid, 1.5 mg/ml tRNA, 0.3 μM of ribosomes, 2.5 mg/ml of phosphoenol pyruvate, 20 μg/ml of pyruvate kinase, the required concentration of sparsomycin or its analogue and 5 μl of supernatant fraction S-100. Subsequently, [^3 H]phenylalanine, 30 μM (about 60 cpm/pmol) was added to start the reaction. Incubation was at 37° C. for 30 min. The reaction was stopped by the addition of 1 ml of 10% TCA and the samples were filtered through glass fiber filters. The filters were washed with 10 ml of cold 10% TCA, dried and counted for radioactivity.
(§4) The concentration of sparsomycin or an analog giving 50% inhibition of the protein synthesis relative to the control is given in ED50.

The target in data set [2] is ribosomes from S. cerevisiae Y166 (peptidyl transferase activity). The data set can be described thus: polyphenylalanine synthesis assay, S. cerevisiae ribosomes. The class given is biochemical. The settings on record: concentration giving 50% inhibition relative to control; 30° C., 30 min; read-out: ED50 polyPhe synthesis S. cerevisiae. The procedure: as §3
S. cerevisiae: The test was carried out as indicated above for E. coli. The phosphoenol pyruvate and pyruvate kinase were, however, replaced by creatine phosphate (20 mM) and creatine phosphokinase (50 μg/ml). The incubation was performed at 30° C. for 30 min and the samples were processed as described above. Under these conditions the control samples polymerized 5-14 and 3-8 molecules of phenylalanine per ribosome derived from E. coli and S. cerevisiae, respectively. Ribosomes and supernatant factors from E. coli and S. cerevisiae were prepared according to standard procedures, described by Staehelin and Maglott, Methods Enzymol. 20 (1971) 449, and by Sanchez-Madrid et al, Eur. J. Biochem. 98 (1979) 409.
as §4

Data set [3] has as its system ribosomes from E. coli MRE600 (peptidyl transferase activity). The data set can be described thus: fragment reaction, E. coli ribosomes. The class given is biochemical. The following applies: 50% inhibition relative to control; 0° C., 30 min, 33% methanol; read-out: ED50 Fragment reaction E. coli. How it is done:
as §3
(§5) The fragment reaction was carried out in 150 μl of 33 mM Tris-HCl pH 7.4, 270 mM KCl, 13 mM magnesium acetate containing 1 mg/ml of ribosomes, 2 mM puromycin, 1 pmol of N-acetyl-[^3 H]Leu-ACCAC(U), the required concentration of sparsomycin or its analogue and 33% methanol. The reaction was initiated by the addition of the alcohol and allowed to proceed at 0° C. for 30 min, and was then stopped by the addition of 100 μl of 0.3M sodium acetate pH 5.5 saturated with MgSO4. The samples were extracted with 1.5 ml of ethyl acetate and 1 ml of the organic phase was checked for radioactivity. The 3' terminal pentanucleotide N-acetyl-[^3 H]Leu-ACCAC(U) was prepared from N-acetyl-[^3 H]Leu-tRNA by ribonuclease T1 as described by Monro.
as §4

Data set [4] concerns the target ribosomes from S. cerevisiae Y166 (peptidyl transferase activity). The data set can be described thus: fragment reaction, S. cerevisiae ribosomes. The settings on record: 50% inhibition relative to control; 0° C., 30 min, 33% methanol; read-out: ED50 Fragment reaction S. cerevisiae. The class given is biochemical. The procedure: as §3, §5, §4
Data set [5] has as its system ribosomes from E. coli MRE600 (peptidyl transferase activity). The data set can be described thus: puromycin reaction, E. coli ribosomes. In kind it is biochemical. The settings on record: 50% inhibition relative to control; read-out: ED50 Puromycin reaction E. coli. How it is done: as §3
The puromycin reaction was carried out in 25 μl of 30 mM KCl, 50 mM NH4 Cl, 30 mM Tris-HCl pH 7.8, 20 mM MgCl2, 10 pmol of ribosomes, 100 μg/ml of poly(U) and 15 pmol of N-acetyl-[^3 H]Phe-tRNA. The reaction mixture was incubated for 30 min at 37° C. and then 1 μl of 20 mM puromycin was added and incubation was followed for 5 more min. To the samples 250 μl of 0.1M sodium carbonate and 0.7 ml of ethyl acetate were added, shaken for 1 min, centrifuged to separate the phases and 0.5 ml of the upper organic phase taken for estimating the radioactivity.
as §4

The test system of the next data set is E. coli MRE600. The data set can be described thus: inhibition of bacterial growth. The class given is cell-based. The procedure:
Inhibition of bacterial growth was tested in solid as well as in liquid medium. For the test on agar plates, petri dishes containing 15 ml of LB medium (10 g/l bactotryptone, 5 g/l yeast extract and 5 g/l NaCl) were covered with 5 ml of the same medium--kept melted at 40° C.--containing 40 μl of a culture of the required bacterium at approximately an A550 of 2. After solidification, 3 mm filter disks containing 4 μl of a 10 mM solution of the antibiotic in 50EtOH/DMSO were placed on the surface of the agar and the plates were incubated at 37° C. for 24 h. For the test in liquid medium, E. coli MRE600 was grown in LB medium supplemented with 0.2% of glucose to exponential phase (A560 =0.1) and distributed in 1 ml aliquots in tubes containing the required amount of antibiotic. The tubes were incubated at 37° C. for 4 h, subsequently diluted with 3 ml of 0.1% of sodium azide to stop growth and the absorption at 550 nm was measured. The absorption of the medium without addition of antibiotic was considered as 100% growth.

The subject of data set [6] is RC (renal cell) carcinoma. Briefly: in vivo antitumor assay, RC (renal cell) carcinoma. On the set-up: species or system CDF1 mice. The settings on record: for T/C (survival, treatment/control x 100%): ip daily x9, optimal dose mg/kg: sparsomycin 0.125, n-octyl 20.0, benzyl 2.7, 2a 1.1. How it is done: as §1, §2
The nature of a further data set: solubility in water. In kind it is physicochemical.
[7] abbreviates: female mice, ip daily x9, optimal dose mg/kg: sparsomycin 0.25, n-octyl 12.0, benzyl 10.0, 2a 2.5, 2e 13.3.
Setting [8] is: female mice, ip daily x9, dose mg/kg: sparsomycin 0.25, n-octyl 12.0, benzyl 10.0, 2a 2.5, 2e 13.3.
Setting [9] is: male mice, ip daily x9, dose mg/kg: sparsomycin 0.125, n-octyl 22.5, benzyl 2.0, 2e 20.0.
Setting [10] is: soft agar 0.3%, 3 days continuous exposure, vs non-treated control cells.
Setting [11] is: Escherichia coli, MRE600, 4 h, read-out: Growth inhibition E. coli MRE600 ED50.
Where [12] appears, read: male mice, ip daily x9, optimal dose mg/kg: sparsomycin 0.125, n-octyl 20.0, benzyl 4.0, 2a 1.7.
Setting [13] is: male mice, ip daily x9, dose mg/kg: sparsomycin 0.125, n-octyl 20.0, benzyl 4.0, 2a 1.7.
Where [14] appears, read: male mice, ip daily x9, dose mg/kg: sparsomycin 0.125, n-octyl 20.0, benzyl 2.7, 2a 1.1.

Values after ≈ are worked out from the molar mass of the structure shown. Where two headings read alike, the source gives them in different places.

The values that follow come from US4820712A, “Sparsomycin (SC-RS) compounds having antitumor activity, a process for their preparation and pharmaceutical compositions containing sparsomycin (SC-RS) compounds” (priority 1986, dated 1989).

One may read the solubility as the concentration that dissolves in the medium under given conditions. Low values mean little dissolved substance, high ones much dissolved substance.

Procedure for Leukemia L 1210 cells: The in vitro clonogenic assay was effected in Leukemia L 1210 cells in soft agar medium (0.3%). […] In the analysis, the inhibition of the L 1210 colony formation by sparsomycin and derivatives thereof is determined for various concentrations, and the dose giving 50% inhibition of the colony formation, as compared with non-treated control cells is calculated (ID50).
From a suspension culture one hundred L 1210 cells are plated out in 35 mm culture dishes (Falcon) containing 1 ml soft agar culture medium and the compound to be investigated in suitable concentrations. The soft agar culture medium consists of Dulbecco's medium supplemented with 20% horse serum, 60 μmole 2-mercaptoethanol, 20 mg/ml L-asparagine, 75 mg/ml DEAE dextran (molecular weight 2×10^6) and 0.3% bacto agar (Difco). The culture dishes were incubated at 37° C. in an atmosphere of 10% CO2 in humidified air for 3 days. After this period of continuous exposure to the medicament the colonies were counted and dose-effect curves made. From these curves, the medicament dose is calculated which causes 50% inhibition of the colony formation as compared with non-treated control cells.

Take `CCCCSC[S@+]([O-])C[C@H](C)NC(=O)/C=C/c1c(C)[nH]c(=O)[nH]c1=O` [2e, (Sc Rs)-1-(n-butylthiomethyl)sulfinyl-2-[β-(6-methyl-5-uracilyl)acrylamido]-propane]: the figures for the “T/C (survival, treatment/control x 100%)” value in the data set on L1210 leukemia (setting [7]) and with P388 leukemia (male mice) were 161% and 146%, respectively. Further, the “cures (survivors in groups of 6 mice)” value in the data set with L1210 leukemia (setting [8]) and in the data set on P388 leukemia (setting [9]) was 0/6 in each case. In addition, the “weight loss (T - C)” value with L1210 leukemia (mouse, in vivo, ip) is reported as -0.7 g; with P388 leukemia (mouse, in vivo, ip), -3.2 g. The LD50 in “acute toxicity LD50” is more than 16 mg/kg.

Consider `CCCCCCCCSC[S@+]([O-])C[C@H](C)NC(=O)/C=C/c1c(C)[nH]c(=O)[nH]c1=O` [2f, (Sc Rs)-1-(n-octylthiomethyl)sulfinyl-2-[β-(6-methyl-5-uracilyl)acrylamido]-propane], for which the IC50 in the data set with Leukemia L 1210 cells (setting [10]) was found to be 180 nM.

On to `CSC[S@@+]([O-])C[C@H](C)NC(=O)/C=C/c1c(C)[nH]c(=O)[nH]c1=O` [3a, (Sc Ss)-1-(methylthiomethyl)sulfinyl-2-[β-(6-methyl-5-uracilyl)acrylamido]-propane], for which the IC50 with Leukemia L 1210 cells was found to be 550 nM; in data set [1], 283000 nM; in data set [2], 143000 nM; in [3], 55000 nM; in data set [4] it was 68000 nM; in data set [5] it was 2700 nM. For the same compound, the IC50 in the data set on E. coli MRE600 (setting [11]) turned out to be 44000 nM.

For `Cc1[nH]c(=O)[nH]c(=O)c1/C=C/C(=O)N[C@@H](CO)C[S@@+]([O-])CSCc1ccccc1` [benzyl-sparsomycin], the IC50 with Leukemia L 1210 cells was 110 nM; in data set [2], 600 nM; in data set [3], 7600 nM; in [4] it was 2600 nM; in data set [5], 130 nM; with E. coli MRE600 (setting [11]) it was 1000 nM. Moreover, the “T/C (survival, treatment/control x 100%)” value worked out at 217% in the data set on L1210 leukemia (setting [7]), 162% in the data set with L1210 leukemia (setting [12]), 133% with P388 leukemia (male mice) and 158% in data set [6] (male mice). For the same compound, the “cures (survivors in groups of 6 mice)” value (in the data set with L1210 leukemia (setting [8]); in the data set on L1210 leukemia (setting [13]); with P388 leukemia (setting [9]); in data set [6] (setting [14])) was 0/6 throughout. For the same compound, the “weight loss (T - C)” value in the data set on L1210 leukemia (setting [8]) is given as -1.6 g; in the data set on L1210 leukemia (male mice, ip daily x9 from 24 h after implant, dose mg/kg: sparsomycin 0.125, n-octyl 20.0, benzyl 4.0, 2a 1.7), -1.8 g; with P388 leukemia (setting [9]) it was -2.2 g; in [6] (setting [14]) it was -1.8 g. The LD50 in the data set “acute toxicity LD50” was 5 mg/kg. This compound also yielded a solubility in the data set “solubility in water” of 1500 µg/mL (≈ 3430 µM).

For the compound `CCCCCCCCSC[S@+]([O-])C[C@H](CO)NC(=O)/C=C/c1c(C)[nH]c(=O)[nH]c1=O` [n-octyl-sparsomycin], the IC50 was found to be 100 nM in the data set on Leukemia L 1210 cells (setting [10]); 1600 nM in data set [1]; 1300 nM in data set [2]; 60000 nM in data set [3]; 300000 nM in data set [4]; 250 nM in data set [5]. Moreover, in the data set on E. coli MRE600 (Escherichia coli, MRE600, 4 h; read-out: Growth inhibition E. coli MRE600 ED50), the IC50 is 2500 nM. Further, the “T/C (survival, treatment/control x 100%)” value in the data set on L1210 leukemia (setting [7]) turned out to be 153%; in the data set with L1210 leukemia (setting [12]), 152%; in the data set on P388 leukemia (male mice), 150%; in [6] (male mice), 179%. Further, the “cures (survivors in groups of 6 mice)” value (in the data set on L1210 leukemia (setting [8]); in the data set on L1210 leukemia (setting [13]); in the data set with P388 leukemia (setting [9]); in data set [6] (setting [14])) was 0/6 in each case. Besides, the “weight loss (T - C)” value in the data set on L1210 leukemia (mouse, in vivo, ip) is -1.9 g; in the data set with P388 leukemia (mouse, in vivo, ip), -1.7 g; in data set [6] (mouse, in vivo, ip), -1.6 g. Moreover, in “acute toxicity LD50”, the LD50 was 29.5 mg/kg. Further, the solubility in “solubility in water” is approximately 200 µg/mL (≈ 435 µM).
